Laboratory results: BigSolDB 2.1

O=C(c1ccccc1)c1ccc(Cl)cc1
solubility (mole fraction)
Settings | 278.15 K | 283.15 K | 288.15 K | 293.15 K | 298.15 K | 303.15 K | 308.15 K | 313.15 K | 318.15 K | 323.15 K
in acetone | 0.0863 | 0.0934 | 0.116 | 0.146 | 0.181 | 0.224 | 0.277 | 0.342 | 0.454 | 0.615
in acetonitrile | 0.0216 | 0.0258 | 0.0352 | 0.0438 | 0.0625 | 0.0858 | 0.131 | 0.19 | 0.307 | 0.616
in ethanol | 0.00817 | 0.0103 | 0.0124 | 0.0151 | 0.0195 | 0.0239 | 0.0318 | 0.043 | 0.06 | 0.0856
in ethyl acetate | 0.114 | 0.118 | 0.138 | 0.167 | 0.203 | 0.24 | 0.294 | 0.351 | 0.43 | 0.534
in isobutanol | 0.0102 | 0.0113 | 0.0138 | 0.0173 | 0.0225 | 0.0305 | 0.0408 | 0.0549 | 0.0821 | 0.123
in isopropanol | 0.00704 | 0.00886 | 0.0118 | 0.0153 | 0.0187 | 0.0223 | 0.0288 | 0.0398 | 0.0617 | 0.0896
in methanol | 0.00549 | 0.00622 | 0.00802 | 0.00943 | 0.012 | 0.0149 | 0.0203 | 0.027 | 0.0384 | 0.0594
in methyl acetate | 0.0971 | 0.109 | 0.134 | 0.164 | 0.196 | 0.239 | 0.289 | 0.354 | 0.417 | 0.494
in n-butanol | 0.0271 | 0.0304 | 0.0347 | 0.0394 | 0.0436 | 0.0478 | 0.0531 | 0.0677 | 0.0993 | 0.211
in n-butyl acetate | 0.133 | 0.142 | 0.156 | 0.182 | 0.212 | 0.248 | 0.285 | 0.329 | 0.383 | 0.454
in n-propanol | 0.0111 | 0.0128 | 0.0163 | 0.0205 | 0.0247 | 0.0325 | 0.0424 | 0.0571 | 0.0829 | 0.135
